In article doi:10.1101/2020.01.23.916502v1 (biorxiv, 2020):

Experiments:
Test in all cases: NanoBRET tracer displacement in live HEK293T cells
Assay type in all cases: cell-based
MAPK9 = MAPK9 (Homo sapiens, UniProt P45984)
JAK1 = JAK1 (Homo sapiens, UniProt P23458)
PNCK = PNCK (Homo sapiens, UniProt Q6P2M8)
PIK3CA = PIK3CA (Homo sapiens, UniProt P42336)
DDR1 = DDR1 (Homo sapiens, UniProt Q08345)
DDR1, sequence (Q08345 19-913): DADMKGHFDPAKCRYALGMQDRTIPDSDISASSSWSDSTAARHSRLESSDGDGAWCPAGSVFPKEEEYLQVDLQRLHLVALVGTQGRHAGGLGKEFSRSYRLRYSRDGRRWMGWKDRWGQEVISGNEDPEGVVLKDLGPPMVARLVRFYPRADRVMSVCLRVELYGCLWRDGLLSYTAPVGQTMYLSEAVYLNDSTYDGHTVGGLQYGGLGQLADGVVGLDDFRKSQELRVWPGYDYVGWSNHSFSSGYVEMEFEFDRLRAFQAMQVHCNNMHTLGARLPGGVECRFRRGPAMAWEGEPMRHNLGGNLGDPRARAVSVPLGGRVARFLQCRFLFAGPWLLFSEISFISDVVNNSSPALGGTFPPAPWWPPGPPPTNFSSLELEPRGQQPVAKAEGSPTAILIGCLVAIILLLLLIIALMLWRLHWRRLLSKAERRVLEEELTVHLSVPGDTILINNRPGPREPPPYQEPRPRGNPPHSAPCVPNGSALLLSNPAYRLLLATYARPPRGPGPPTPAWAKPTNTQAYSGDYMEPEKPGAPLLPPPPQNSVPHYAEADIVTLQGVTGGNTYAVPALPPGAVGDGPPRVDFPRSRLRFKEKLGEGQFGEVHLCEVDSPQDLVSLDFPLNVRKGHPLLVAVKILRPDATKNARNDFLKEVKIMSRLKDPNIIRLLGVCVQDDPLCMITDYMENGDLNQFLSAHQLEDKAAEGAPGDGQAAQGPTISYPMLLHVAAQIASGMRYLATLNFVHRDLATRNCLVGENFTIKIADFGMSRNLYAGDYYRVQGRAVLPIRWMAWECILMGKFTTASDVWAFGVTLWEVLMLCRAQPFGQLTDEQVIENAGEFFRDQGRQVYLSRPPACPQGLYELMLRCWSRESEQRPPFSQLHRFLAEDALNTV

MAPK9, sequence (P45984 whole entry): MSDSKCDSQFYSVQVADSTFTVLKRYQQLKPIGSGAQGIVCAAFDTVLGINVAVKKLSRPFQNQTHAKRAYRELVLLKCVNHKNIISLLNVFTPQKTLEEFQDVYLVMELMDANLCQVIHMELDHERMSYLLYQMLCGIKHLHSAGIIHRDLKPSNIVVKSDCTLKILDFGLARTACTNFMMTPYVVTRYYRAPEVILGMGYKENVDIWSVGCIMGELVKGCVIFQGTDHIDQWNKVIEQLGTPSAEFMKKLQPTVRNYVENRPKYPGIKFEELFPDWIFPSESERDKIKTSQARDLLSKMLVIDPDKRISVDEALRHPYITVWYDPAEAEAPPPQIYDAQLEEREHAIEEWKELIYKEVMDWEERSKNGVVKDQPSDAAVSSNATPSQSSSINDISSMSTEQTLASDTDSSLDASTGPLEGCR
PNCK, sequence (Q6P2M8 whole entry): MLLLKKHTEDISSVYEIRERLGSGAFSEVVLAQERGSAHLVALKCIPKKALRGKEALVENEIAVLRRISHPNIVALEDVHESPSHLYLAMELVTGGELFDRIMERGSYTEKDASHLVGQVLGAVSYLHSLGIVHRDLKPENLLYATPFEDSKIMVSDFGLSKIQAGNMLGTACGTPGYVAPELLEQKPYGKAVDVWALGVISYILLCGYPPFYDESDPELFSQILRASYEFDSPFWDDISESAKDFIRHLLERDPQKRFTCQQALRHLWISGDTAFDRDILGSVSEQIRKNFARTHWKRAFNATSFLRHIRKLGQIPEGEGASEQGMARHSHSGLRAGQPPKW
PIK3CA, sequence (P42336 whole entry): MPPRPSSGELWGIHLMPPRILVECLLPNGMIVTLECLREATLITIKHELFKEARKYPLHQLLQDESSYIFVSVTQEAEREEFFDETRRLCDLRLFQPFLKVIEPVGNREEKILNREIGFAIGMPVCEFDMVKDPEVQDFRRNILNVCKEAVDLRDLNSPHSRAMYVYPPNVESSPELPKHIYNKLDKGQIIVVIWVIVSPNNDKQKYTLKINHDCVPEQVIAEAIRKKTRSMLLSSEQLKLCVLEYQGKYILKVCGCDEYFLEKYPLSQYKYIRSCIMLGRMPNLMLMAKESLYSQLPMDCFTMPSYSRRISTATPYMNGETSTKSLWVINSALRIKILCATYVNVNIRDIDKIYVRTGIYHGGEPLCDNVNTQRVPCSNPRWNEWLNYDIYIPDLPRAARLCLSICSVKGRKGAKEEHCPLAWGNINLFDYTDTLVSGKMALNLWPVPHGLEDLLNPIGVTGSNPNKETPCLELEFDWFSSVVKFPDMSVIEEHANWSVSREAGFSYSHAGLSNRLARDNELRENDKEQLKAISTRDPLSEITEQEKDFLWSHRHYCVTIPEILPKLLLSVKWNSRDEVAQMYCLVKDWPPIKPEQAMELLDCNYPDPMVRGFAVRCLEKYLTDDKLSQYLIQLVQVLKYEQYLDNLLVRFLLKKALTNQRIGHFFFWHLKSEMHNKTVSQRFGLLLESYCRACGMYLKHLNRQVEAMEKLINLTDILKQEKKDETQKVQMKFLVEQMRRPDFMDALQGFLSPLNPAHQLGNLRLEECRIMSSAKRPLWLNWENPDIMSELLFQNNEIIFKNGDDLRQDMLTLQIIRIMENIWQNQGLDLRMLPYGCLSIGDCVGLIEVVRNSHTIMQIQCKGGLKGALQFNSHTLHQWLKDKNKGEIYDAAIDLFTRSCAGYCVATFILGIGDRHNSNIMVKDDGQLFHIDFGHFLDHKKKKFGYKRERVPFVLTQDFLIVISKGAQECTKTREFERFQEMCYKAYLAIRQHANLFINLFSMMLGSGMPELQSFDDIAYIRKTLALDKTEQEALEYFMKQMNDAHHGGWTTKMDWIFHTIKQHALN
JAK1, sequence (P23458 whole entry): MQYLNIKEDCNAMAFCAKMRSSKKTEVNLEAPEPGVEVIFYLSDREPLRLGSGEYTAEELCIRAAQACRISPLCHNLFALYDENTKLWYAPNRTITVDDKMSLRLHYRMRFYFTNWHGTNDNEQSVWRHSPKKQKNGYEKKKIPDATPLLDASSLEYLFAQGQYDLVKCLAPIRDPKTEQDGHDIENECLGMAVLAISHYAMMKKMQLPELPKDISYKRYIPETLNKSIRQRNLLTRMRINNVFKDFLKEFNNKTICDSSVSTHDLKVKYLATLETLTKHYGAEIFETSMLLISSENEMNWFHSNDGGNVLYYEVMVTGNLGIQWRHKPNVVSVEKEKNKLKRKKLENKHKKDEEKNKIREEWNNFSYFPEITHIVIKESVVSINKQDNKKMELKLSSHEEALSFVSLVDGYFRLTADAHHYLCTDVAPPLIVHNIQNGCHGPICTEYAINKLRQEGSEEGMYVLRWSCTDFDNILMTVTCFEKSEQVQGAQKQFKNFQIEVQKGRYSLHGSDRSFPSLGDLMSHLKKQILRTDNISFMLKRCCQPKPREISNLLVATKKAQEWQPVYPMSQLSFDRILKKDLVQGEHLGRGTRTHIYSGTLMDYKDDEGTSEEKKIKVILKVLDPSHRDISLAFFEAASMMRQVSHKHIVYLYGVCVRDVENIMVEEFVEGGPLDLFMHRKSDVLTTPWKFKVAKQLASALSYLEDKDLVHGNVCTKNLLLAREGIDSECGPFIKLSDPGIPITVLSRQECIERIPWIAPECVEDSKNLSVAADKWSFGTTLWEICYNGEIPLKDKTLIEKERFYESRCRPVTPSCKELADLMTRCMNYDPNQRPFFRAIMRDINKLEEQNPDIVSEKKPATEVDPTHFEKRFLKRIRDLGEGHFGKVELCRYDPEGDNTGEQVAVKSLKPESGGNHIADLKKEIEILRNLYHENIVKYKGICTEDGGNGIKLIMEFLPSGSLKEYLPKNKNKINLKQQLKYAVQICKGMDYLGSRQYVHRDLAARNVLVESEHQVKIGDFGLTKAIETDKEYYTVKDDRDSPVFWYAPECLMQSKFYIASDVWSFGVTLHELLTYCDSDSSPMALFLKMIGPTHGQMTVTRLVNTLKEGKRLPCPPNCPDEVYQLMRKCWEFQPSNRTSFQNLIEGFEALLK

| IC50 (MAPK9) | IC50 (JAK1) | IC50 (PNCK) | IC50 (PIK3CA) | IC50 (DDR1) | Structure (SMILES) |
| --- | --- | --- | --- | --- | --- |
| > 20 µM | > 20 µM | > 20 µM | > 20 µM | > 20 µM | Cc1cnc(-c2cc(Cl)ccc2F)cc1-n1c(=O)n(CC(N)=O)c2ccccc21 [compound 15, THAI11] |
| > 20 µM | > 20 µM | > 20 µM | > 20 µM | > 20 µM | Cc1ccc2c(c1)n(CC(N)=O)c(=O)n2-c1cc(-c2cc(Cl)ccc2F)ncc1C [compound 16, THAI14] |
